Drawing on ChEMBL document CHEMBL5726216, “Derivatives and methods of treating hepatitis B infections” (2019), this text covers EC50 for 20 molecules.

Bounds are passed on as bounds.

This test in a line: BDNA-assay: HBV replication inhibition by the compounds of this invention could be determined in cells infected or transfected with HBV, or cells with stably integrated HBV, such as HepG2.2.15 cells (Sells et al. 1987). In this example, HepG2.2.15 cells were maintained in cell culture medium containing 10% fetal bovine serum (FBS), Geneticin, L-glutamine, penicillin and streptomycin. HepG2.2.15 cells could be seeded in 96-well plates at a density of 40,000 cells/well and be treated with serially diluted compounds at a final DMSO concentration of 0.5% either alone or in combination by adding drugs in a checker box format. Cells were incubated with compounds for three days, after which medium was removed and fresh medium containing compounds was added to cells and incubated for another three days. At day 6, supernatant was removed and treated with DNase at 37° C. for 60 minutes, followed by enzyme inactivation at 75° C. for 15 minutes. Encapsidated HBV DNA was released from the virions and covalently linked HBV polymerase by incubating in lysis buffer (Affymetrix QS0010) containing […] proteinase K at 50° C. for 40 minutes. HBV DNA was denatured by addition of 0.2 M NaOH and detected using a branched DNA (BDNA) QuantiGene assay kit according to manufacturer recommendation (Affymetrix). HBV DNA levels could also be quantified using qPCR, based on amplification of encapsidated HBV DNA extraction with QuickExtraction Solution (Epicentre Biotechnologies) and amplification of HBV DNA using HBV specific PCR probes that can hybridize to HBV DNA and a fluorescently labeled probe for quantitation. In addition, cell viability of HepG2.2.15 cells incubated with test compounds alone or in combination was determined by using CellTitre-Glo reagent according to the manufacturer protocol (Promega). The mean background signal from wells containing only culture medium was subtracted from all other samples, and percent inhibition at each compound concentration was calculated by normalizing to signals from HepG2.2.15 cells treated with 0.5% DMSO using equation E1.
For the molecule `CC(C)CON(C)C(=O)c1n[nH]c2c1CN(C(=O)Nc1cccc(Cl)c1)CC2`, the EC50 (commonly the concentration giving half of the maximal effect) was under 500 nM.

Consider `CCON(C)C(=O)c1n[nH]c2c1CN(C(=O)Nc1cccc(Cl)c1)CC2`, for which the EC50 was under 100 nM.

Regarding `CN(OC1CCOC1)C(=O)c1n[nH]c2c1CN(C(=O)Nc1cccc(Cl)c1)CC2` (stereo not given), the EC50 is under 500 nM.

As for `CN(C)N(C)C(=O)c1n[nH]c2c1CN(C(=O)Nc1cccc(Cl)c1)CC2`, the EC50 was under 100 nM.

In the case of `CON(C)C(=O)c1n[nH]c2c1CN(C(=O)Nc1cccc(Cl)c1)CC2`, the 50% effective concentration (EC50) was under 100 nM.

As for `CN(OCC1CC1)C(=O)c1n[nH]c2c1CN(C(=O)Nc1cccc(Cl)c1)CC2`, the EC50 is under 500 nM.

Turning to `CCN(OC)C(=O)c1n[nH]c2c1CN(C(=O)Nc1cccc(Cl)c1)CC2`, the EC50 was under 100 nM.

On to `CON(C(=O)c1n[nH]c2c1CN(C(=O)Nc1cccc(Cl)c1)CC2)C(C)C`, for which the EC50 was under 500 nM.

Take `O=C(Nc1cccc(Cl)c1)N1CCc2[nH]nc(C(=O)N3CC(O)CO3)c2C1` (stereo not given): the EC50 was under 1000 nM.

`COCCON(C)C(=O)c1n[nH]c2c1CN(C(=O)Nc1cccc(Cl)c1)CC2`: the EC50 is under 500 nM.

Take `CCCON(C)C(=O)c1n[nH]c2c1CN(C(=O)Nc1cccc(Cl)c1)CC2`: the EC50 was under 500 nM.

For `CN(OC1CCC1)C(=O)c1n[nH]c2c1CN(C(=O)Nc1cccc(Cl)c1)CC2`, the EC50 was under 100 nM.

`O=C(Nc1cccc(Cl)c1)N1CCc2[nH]nc(C(=O)N3CC(F)CO3)c2C1` (stereo not given): the EC50 is under 100 nM.

In the case of `CC(C)ON(C)C(=O)c1n[nH]c2c1CN(C(=O)Nc1cccc(Cl)c1)CC2`, the EC50 is under 100 nM.

As for `CCC(=O)c1n[nH]c2c1CN(C(=O)Nc1cccc(Cl)c1)CC2`, the EC50 is under 500 nM.

In the case of `CCCC(=O)c1n[nH]c2c1CN(C(=O)Nc1cccc(Cl)c1)CC2`, the EC50 is under 100 nM.

Take `CN(O)C(=O)c1n[nH]c2c1CN(C(=O)Nc1cccc(Cl)c1)CC2`: the EC50 is under 1000 nM.

As to `CN(OCCO)C(=O)c1n[nH]c2c1CN(C(=O)Nc1cccc(Cl)c1)CC2`, the EC50 is under 500 nM.

Turning to `O=C(Nc1cccc(Cl)c1)N1CCc2[nH]nc(C(=O)N3CCCO3)c2C1`, the EC50 is under 500 nM.

For `CN1CC(ON(C)C(=O)c2n[nH]c3c2CN(C(=O)Nc2cccc(Cl)c2)CC3)C1`, the EC50 is under 500 nM.
